# Assay results reported in patent US12129490B2, “Methods for generating hepatocytes and cholangiocytes from pluripotent stem cells” (UNIVERSITY HEALTH NETWORK, priority 2018, dated 2024).
# What was measured:
# CFTR = target: T1, CFTR (Homo sapiens, UniProt P13569); test: Forskolin-induced swelling assay on hPSC-derived cystic structures; type: cell-based; settings: hPSC-derived cysts
# T1 construct: hPSC-derived cyst structures generated in 3D gels contain functional CFTR protein; endogenous in cells; host or cells: cysts from H9 hESC- and Y2-1 iPSC-derived cholangiocytes
# T1 sequence (P13569 whole entry): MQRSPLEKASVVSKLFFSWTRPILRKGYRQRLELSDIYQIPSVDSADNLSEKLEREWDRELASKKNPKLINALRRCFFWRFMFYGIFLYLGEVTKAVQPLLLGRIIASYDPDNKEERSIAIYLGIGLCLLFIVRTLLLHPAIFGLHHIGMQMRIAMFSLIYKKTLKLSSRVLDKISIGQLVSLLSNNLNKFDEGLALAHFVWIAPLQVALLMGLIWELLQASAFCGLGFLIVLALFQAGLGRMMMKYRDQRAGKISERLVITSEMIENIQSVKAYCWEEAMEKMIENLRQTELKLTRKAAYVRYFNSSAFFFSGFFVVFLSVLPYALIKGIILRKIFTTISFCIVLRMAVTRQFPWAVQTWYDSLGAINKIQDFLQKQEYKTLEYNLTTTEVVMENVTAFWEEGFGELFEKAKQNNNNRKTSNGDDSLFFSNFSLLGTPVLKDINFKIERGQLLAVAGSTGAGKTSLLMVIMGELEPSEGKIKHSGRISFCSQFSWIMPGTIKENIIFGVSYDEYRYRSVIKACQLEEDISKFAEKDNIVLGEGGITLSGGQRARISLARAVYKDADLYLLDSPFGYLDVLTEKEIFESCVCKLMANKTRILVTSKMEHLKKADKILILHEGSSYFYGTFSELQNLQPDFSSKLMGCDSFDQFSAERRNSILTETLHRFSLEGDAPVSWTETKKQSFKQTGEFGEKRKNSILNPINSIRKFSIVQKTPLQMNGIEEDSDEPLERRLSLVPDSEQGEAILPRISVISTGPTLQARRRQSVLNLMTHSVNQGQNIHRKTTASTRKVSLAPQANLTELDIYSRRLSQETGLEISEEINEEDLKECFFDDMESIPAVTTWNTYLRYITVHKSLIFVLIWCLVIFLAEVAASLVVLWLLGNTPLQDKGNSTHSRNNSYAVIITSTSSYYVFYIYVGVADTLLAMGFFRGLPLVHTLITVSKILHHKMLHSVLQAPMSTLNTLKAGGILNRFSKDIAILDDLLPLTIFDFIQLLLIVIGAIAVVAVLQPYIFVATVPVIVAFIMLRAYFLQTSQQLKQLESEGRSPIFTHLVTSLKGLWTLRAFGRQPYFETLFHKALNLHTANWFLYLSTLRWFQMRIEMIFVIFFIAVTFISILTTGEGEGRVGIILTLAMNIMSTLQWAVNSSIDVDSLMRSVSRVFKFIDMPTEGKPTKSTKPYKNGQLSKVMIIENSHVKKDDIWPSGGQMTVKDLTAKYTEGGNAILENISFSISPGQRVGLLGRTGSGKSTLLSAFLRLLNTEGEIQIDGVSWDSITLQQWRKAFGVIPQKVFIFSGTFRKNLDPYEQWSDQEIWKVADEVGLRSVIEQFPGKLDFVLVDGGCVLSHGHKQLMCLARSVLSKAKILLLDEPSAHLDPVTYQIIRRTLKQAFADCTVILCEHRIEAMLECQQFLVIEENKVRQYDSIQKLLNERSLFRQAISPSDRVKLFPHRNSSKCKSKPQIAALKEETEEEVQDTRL
# Description: F/I stimulated cyst swelling was quantified using velocity imaging software. The total size of the cysts is normalized to that prior to F/I stimulation. Values are from three individual experiments.
# With this assay, activation of the cAMP pathway by the addition of Forskolin/IBMX increases CFTR function resulting in fluid transport and swelling of the cyst. Swelling can be visualized following staining with calcein green, a cell-permeable fluorescent dye (FIG. 18a).
# [1] = test system: iPSC-derived cholangiocytes; test: Cyst formation in 3D gel culture of iPSC-derived cholangiocytes; type: cell-based, human; settings: normal iPSC-derived cholangiocytes
# Description: After embedding in collagen/Matrigel culture, cyst formation was induced from the aggregates by the addition of forskolin for the first week of the two-week culture period (left). Without forskolin stimulation, the CF-iPSCs derived cholangiocytes formed branched ductal structure rather than hollow cysts (right).
# CF-iPSCs derived cholangiocytes were maintained in the 3D gel conditions in the presence or absence of forskolin for the first week of the two weeks culture period (left graph). Normal iPS cells-derived cholangiocytes were maintained in the presence or absence of CFTR inhibitor for the first week of the two-week culture periods (right graph). […] Addition of the CFTR inhibitor to normal iPSC-derived cholangiocytes delayed cyst formation (right graph).
# Both hiPSC lines generated hepatoblast populations with kinetics similar to those observed for wild type hPSCs (FIG. 24a, b). […] However, many of the cysts that developed from the patient iPSC we not completely hollow, but rather contained branched ductal structures (FIG. 19c).
# hPSCs = test: Definitive endoderm induction with CHIR99021 replacing Wnt3a, flow cytometry; type: cell-based, human; settings: in combination with activin
# Method: CHIR99021 is a selective inhibitor of GSK3 that has been reported to mimic the canonical Wnt signal pathway. CHIR99021 was tested as a replacement of wnt3a (e.g. added in combination with activin) in inducing Embryoid bodies and monolayer induction for definitive endoderm cells from hPSCs. […] At day 0, the cells were cultured in a RPMI based medium supplemented with glutamine (2 mM), MTG (4.5×10^−4 M: Sigma), activin A (100 ng/ml), CHIR99021 (0.3 μM) or Wnt3a (25 ng/ml). […] The media was changed every the other day. At day 7, the definitive endoderm was specified to a hepatic fate by treatment with FGF and BMP pathway agonists, as described above.
# other kinases = settings: in vitro kinase assays; cited from earlier work
# [2] = test system: hESC-derived embryoid bodies; test: Endoderm induction in hESC-derived embryoid bodies, flow cytometry; type: cell-based, human; settings: day six EBs
# Method: Similar to protocols using monolayer cultures^16, it involves specific steps that recapitulate the critical stages of liver development in the early embryo. EBs are formed from small aggregates by culture for 24 hours in low levels of BMP4, as previously described^18. The EBs are subsequently exposed to high concentrations of activin A (hereafter referred to as activin) for five days to induce definitive endoderm, a population defined by expression of the surface markers CXCR4, CKIT and EPCAM and the transcription factors SOX17 and FOXA2.
# Addition of Wnt3A to the activin-induced EB cultures led to reproducible increases in the proportion of CXCR4^+, SOX17^+ and FOXA2^+ cells within the EBs (FIG. 1c). With the increase in CXCR4 expression, the proportion of CKIT^+CXCR4^+ and CXCR4^+EPCAM^+ cells increased to greater than 95% of the population. […] Endoderm induction in the EBs was influenced by the base culture media used. StemPro34 supported more efficient endoderm induction than neural basal media that we used previously (FIG. 1f). The induction of highly enriched endoderm is an important first step in the efficient and reproducible generation of hepatocyte-like cells from hPSCs.
# (§1) Media was changed every 3 days.
# Flow cytometric analyses were performed as described previously^45. […] Stained cells were analyzed using an LSRII flow cytometer (BD).
# [3] = test system: day six EB-derived monolayer cells; test: Extended activin treatment of EB-derived monolayer cells, flow cytometry; type: cell-based, human
# Method: FIG. 3A is an intracellular flow cytometric analysis showing the proportion of SOX17^+ and FOXA2^+ cells in day six activin/Wnt3A-induced EBs as well as in monolayer populations derived from them. The monolayer populations were cultured either directly in the specification media (−activin) or for two days in activin (50 ng/ml) and then in the specification media (+activin). Populations were analyzed following two or four days culture in the specification media (total days eight and 10 for the −activin group and days 10 and 12 for the +activin group). Bars represent standard deviation (SD) of the mean of three independent experiments.
# FIG. 3E is a flow cytometric analysis showing the proportion of CD31^+ CD90^+ and EPCAM^+ cells in monolayer populations derived from activin treated (day 26) and non-treated (day 24) endoderm. […] In contrast, a higher portion of EPCAM^+ cells was detected in the population derived from the activin-treated endoderm compared to the population generated from the non-treated cells (EPCAM: 90.7+/−2.7% vs 56.8+/−7.3%; P<0.01, n=3).
# It was not known if prolonged signaling would be useful with human PSC. The effect of increasing the duration of this signaling pathway was extended in the human system by culturing the monolayer cells for two days in activin prior to the FGF/BMP4 specification step. […] Without being bound by theory, since the total cell number was lower in the treated population (FIG. 3b) it is possible that activin signaling at this stage preferentially supports the survival of endodermal cells.
# as §1
# Flow cytometric analyses were performed as described previously^45. For cell surface markers, staining was carried out in PBS with 10% FCS. For intracellular proteins, staining was performed on cells fixed with 4% paraformaldehyde (Electron Microscopy Science, Hatfield, PA, USA) in PBS. Cells were permeabilized with 90% ice-cold methanol for 20 minutes for Sox17 and FoxA2 staining as previously described^45. Albumin and alpha-fetoprotein staining was performed in PBS with 10% FCS and 0.5% saponin (Sigma). Stained cells were analyzed using an LSRII flow cytometer (BD).
# [4] = test system: H9 hESCs, H1 hESCs and 38-2 iPSCs; test: Hepatic specification from other hPSC lines, flow cytometry; type: cell-based, human
# Description: To determine whether the approach detailed above is broadly applicable to different human pluripotent stem cell lines the protocol was used to differentiate the hESC lines H9 and H1 as well as an induced pluripotent cell (iPSC) line 38-2 to a hepatic fate. Day six EBs from all three lines contained high proportions of CKIT^+CXCR4^+ and CKIT^EPCAM* cells following the Wnt3a/activin induction step (FIG. 7a). Although the proportion of EPCAIVT cells was high in all EBs, the H9-derived cells expressed substantially higher levels of EPCAM than cells generated from the other lines. The levels of EPCAM expression correlated with the degree of endoderm induction, as greater than 95% of the H9-derived population expressed SOX17^+ and FOXA2^+ whereas only 65-70% of the iPSC-derived cells expressed these transcription factors (FIG. 7a). These findings indicate that surface marker analysis alone is not sufficient to monitor endoderm development and that quantitative analyses of SOX17 and FOXA2 expression is required to measure induction of this germ layer. As observed with the HES2 cells, extended activin/nodal signaling improved hepatic development of the CKIT^+CXCR4^+ population from each line (FIG. 7b). However, the duration of activin treatment necessary to generate significant levels of ALB expression varied between cell lines. Whereas higher levels of ALB expression were achieved following two days of activin treatment with H9-derived cells, both H1 and 38-2 cells required four days of additional activin signaling. With this treatment, it was possible to generate cultures consisting of 90%, 85% and 70% ALB^+ cells from the H9, H1 and 38-2 cell lines, respectively (FIG. 7c).
# as §1
# Flow cytometric analyses were performed as described previously^45. For cell surface markers, staining was carried out in PBS with 10% FCS. For intracellular proteins, staining was performed on cells fixed with 4% paraformaldehyde (Electron Microscopy Science, Hatfield, PA, USA) in PBS. […] Stained cells were analyzed using an LSRII flow cytometer (BD).
# [5] = day 10/12, two days activin 50 ng/ml before specification media
# [6] = monolayer from activin treated endoderm, day 26
compound,measurement,setting,value
O=C(O)c1ccc(/C=C2\SC(=S)N(c3cccc(C(F)(F)F)c3)C2=O)cc1 [CFTRinh-172],effect on Forskolin/IBMX induced swelling,CFTR,blocked
same,cyst formation,[1],delayed
Cc1c[nH]c(-c2cnc(NCCNc3ccc(C#N)cn3)nc2-c2ccc(Cl)cc2Cl)n1 [CHIR 99021],proportion of CKIT+CXCR4+ and CXCR4+EPCAM+ cells,hPSCs,greater than 95%
same,effect on other kinases,other kinases,little effect
"activin: Activin A, nodal agonist",proportion co-expressing CXCR4 and CKIT or CXCR4 and EPCAM,[2],greater than 90%
same,proportion of FOXA2+ cells,[3]; [5],92.7+/−2.5%
same,proportion of SOX17+ cells,[3]; [5],73.3+/−7.5%
same,proportion of FOXA2+ cells,"[3]; days 8/10, two days activin 50 ng/ml before specification media",96.1+/−0.9%
same,proportion of CD31+ cells,[3]; [6],0.49+/−0.11%
same,proportion of CD90+ cells,[3]; [6],8.5+/−1.19%
same,proportion of EPCAM+ cells,[3]; [6],90.7+/−2.7%
same,ALB+ cells,"[4]; 38-2, four days additional activin",70%
same,ALB+ cells,"[4]; H1, four days additional activin",85%
same,ALB+ cells,"[4]; H9, two days additional activin",90%
